{
  "source": "patent EP4722213A1",
  "about": "“NITROGEN-CONTAINING FUNCTIONAL GROUP-SUBSTITUTED PYRIDAZINOPYRIDONE DERIVATIVE AND USE THEREOF” (Sichuan Huiyu Pharmaceutical Co., Ltd., priority 2023, dated 2024)",
  "note": "Structures can show the parent of a compound that is named as a salt.",
  "data": [
    {"target": "T1, SOS1 (Homo sapiens, UniProt Q07889)", "T1 sequence (Q07889 1-1333)": "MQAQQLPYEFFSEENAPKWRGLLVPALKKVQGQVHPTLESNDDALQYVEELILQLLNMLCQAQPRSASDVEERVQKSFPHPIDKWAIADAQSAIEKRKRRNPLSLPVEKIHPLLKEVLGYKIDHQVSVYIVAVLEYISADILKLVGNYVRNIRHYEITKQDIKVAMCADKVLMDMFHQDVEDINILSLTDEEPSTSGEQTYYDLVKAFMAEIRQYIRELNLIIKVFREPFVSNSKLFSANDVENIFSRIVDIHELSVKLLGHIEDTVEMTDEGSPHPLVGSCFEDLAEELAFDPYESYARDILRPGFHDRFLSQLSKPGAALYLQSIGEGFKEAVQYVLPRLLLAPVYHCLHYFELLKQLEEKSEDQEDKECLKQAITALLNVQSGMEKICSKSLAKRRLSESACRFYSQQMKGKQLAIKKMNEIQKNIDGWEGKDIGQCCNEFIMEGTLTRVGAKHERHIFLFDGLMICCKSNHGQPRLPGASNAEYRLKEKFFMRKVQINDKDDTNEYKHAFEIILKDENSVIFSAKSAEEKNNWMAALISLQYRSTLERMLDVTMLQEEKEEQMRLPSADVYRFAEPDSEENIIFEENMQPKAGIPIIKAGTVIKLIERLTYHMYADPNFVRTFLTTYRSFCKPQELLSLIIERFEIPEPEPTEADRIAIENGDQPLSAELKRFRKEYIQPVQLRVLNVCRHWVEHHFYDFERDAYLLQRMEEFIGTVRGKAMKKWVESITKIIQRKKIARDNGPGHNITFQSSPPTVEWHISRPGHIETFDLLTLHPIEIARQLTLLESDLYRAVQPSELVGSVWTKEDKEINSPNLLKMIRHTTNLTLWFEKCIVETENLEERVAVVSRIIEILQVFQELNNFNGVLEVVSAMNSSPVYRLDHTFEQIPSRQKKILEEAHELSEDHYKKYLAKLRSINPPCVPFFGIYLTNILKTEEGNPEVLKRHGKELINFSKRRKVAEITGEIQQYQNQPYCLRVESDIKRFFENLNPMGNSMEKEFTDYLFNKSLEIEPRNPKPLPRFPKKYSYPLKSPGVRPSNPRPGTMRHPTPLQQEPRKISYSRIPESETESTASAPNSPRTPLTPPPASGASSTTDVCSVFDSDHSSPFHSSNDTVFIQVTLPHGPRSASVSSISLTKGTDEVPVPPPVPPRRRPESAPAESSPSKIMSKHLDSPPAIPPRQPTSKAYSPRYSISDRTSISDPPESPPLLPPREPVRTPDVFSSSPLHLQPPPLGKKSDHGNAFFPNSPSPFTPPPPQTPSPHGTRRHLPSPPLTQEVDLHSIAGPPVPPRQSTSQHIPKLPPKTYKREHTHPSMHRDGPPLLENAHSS", "experiment": "biochemical", "units": {"IC50": "nM"}, "values": [
      {"smiles": "C[C@@H](Nc1nnc(NCC(F)F)c2cc(=O)n(C3(C)CC3)cc12)c1cccc(C(F)F)c1F", "note": "[Example 134, (R)-1-((2,2-difluoroethyl)amino)-4-((1-(3-(difluoromethyl)-2-fluorophenyl)ethyl)amino)-6-(1-methylcyclopropyl) pyrido[3,4-d]pyridazin-7(6H)-one]", "IC50": 9.5},
      {"smiles": "C[C@@H](Nc1nnc(N2CCC[C@@H]2CO)c2cc(=O)n(C3(C)CC3)cc12)c1cccc(C(F)F)c1F", "note": "[Example 139, 4-(((R)-1-(3-(difluoromethyl)-2-fluorophenyl)ethyl)amino)-1-((R)-2-(hydroxymethyl)pyrrolidin-1-yl)-6-(1-methylcyclopropyl) pyrido[3,4-d]pyridazin-7(6H)-one]", "IC50": 6.2},
      {"smiles": "C[C@@H](Nc1nnc(N2CC3(COC3)C2)c2cc(=O)n(C3(C)CC3)cc12)c1cccc(C(F)F)c1F", "note": "[Example 190, (R)-4-((1-(3-(difluoromethyl)-2-fluorophenyl)ethyl)amino)-6-(1-methylcyclopropyl)-1-(2-oxa-6-azaspiro[3.3]heptan-6-yl)pyrido[3,4-d]pyridazin-7(6H)-one]", "IC50": 4.2},
      {"smiles": "C[C@@H](Nc1nnc(N2CC3(CC(O)C3)C2)c2cc(=O)n(C3(C)CC3)cc12)c1cccc(C(F)F)c1F", "note": "[Example 196, (R)-4-((1-(3-(difluoromethyl)-2-fluorophenyl)ethyl)amino)-1-(6-hydroxy-2-azaspiro[3.3]heptan-2-yl)-6-(1-methylcyclopropyl) pyrido[3,4-d]pyridazin-7(6H)-one]", "IC50": 3.7},
      {"smiles": "C[C@@H](Nc1nnc(N2CCN(C)C(=O)C2)c2cc(=O)n(C3(C)CC3)cc12)c1cccc(C(F)(F)F)c1F", "note": "[Example 174, (R)-4-((1-(2-fluoro-3-(trifluoromethyl)phenyl)ethyl)amino)-1-(4-methyl-3-oxopiperazin-1-yl)-6-(1-methylcyclopropyl) pyrido[3,4-d]pyridazin-7(6H)-one]", "IC50": 20.2},
      {"smiles": "Cc1cc(N)cc([C@@H](C)Nc2nnc(N3CCN(C)CC3)c3cc(=O)n(C4(C)CC4)cc23)c1F", "note": "[Example 152, (R)-4-((1-(5-amino-2-fluoro-3-methylphenyl)ethyl)amino)-6-(1-methylcyclopropyl)-1-(4-methylpiperazin-1-yl)pyrido[3,4-d]pyridazin-7(6H)-one]", "IC50": 4.2},
      {"smiles": "CCN1CCN(c2nnc(N[C@H](C)c3cccc(C#N)c3C)c3cn(C)c(=O)cc23)CC1", "note": "[Example 145, (R)-3-(1-((1-(4-ethylpiperazin-1-yl)-6-methyl-7-oxo-6,7-dihydropyrido[3,4-d]pyridazin-4-yl)amino)ethyl)-2-methylbenzonitrile formate]", "IC50": 7.8},
      {"smiles": "Cc1c(C#N)cccc1[C@@H](C)Nc1nnc(N2CC3CC3C2)c2cc(=O)n(C3CC3)cc12", "note": "(stereo partly drawn) [Example 35, 3-((1R)-1-((1-(3-azabicyclo[3.1.0]hexan-3-yl)-6-cyclopropyl-7-oxo-6,7-dihydropyrido[3,4-d]pyridazin-4-yl)amino)ethyl)-2-methylbenzonitrile]", "IC50": 14.8},
      {"smiles": "C[C@@H](Nc1nnc(N2CCN(C)CC2)c2cc(=O)n(C3(C)CC3)cc12)c1cccc(S(F)(F)(F)(F)F)c1", "note": "[Example 214, (R)-6-(1-methylcyclopropyl)-1-(4-methylpiperazin-1-yl)-4-((1-(3-(pentafluoro-λ^6-sulfaneyl)phenyl)ethyl)amino)pyrido[3,4-d]pyridazin-7(6H)-one formate]", "IC50": 5},
      {"smiles": "C[C@@H]1CCCN1c1nnc(N[C@H](C)c2cccc(C(F)F)c2F)c2cn(C3CC3)c(=O)cc12", "note": "[Example 25, 6-cyclopropyl-4-(((R)-1-(3-(difluoromethyl)-2-fluorophenyl)ethyl)amino)-1-((R)-2-methylpyrrolidin-1-yl)pyrido[3,4-d]pyridazin-7(6H)-one]", "IC50": 12},
      {"smiles": "CC(C)n1cc2c(N[C@H](C)c3cccc(C(F)F)c3F)nnc(N3CCN(C)CC3)c2cc1=O", "note": "[Example 114, (R)-4-((1-(3-(difluoromethyl)-2-fluorophenyl)ethyl)amino)-6-isopropyl-1-(4-methylpiperazin-1-yl)pyrido[3,4-d]pyridazin-7(6H)-one formate]", "IC50": 6},
      {"smiles": "Cc1c(C(F)F)cccc1[C@@H](C)Nc1nnc(N2CCN(C3CC3)CC2)c2cc(=O)n(C3CC3)cc12", "note": "[Example 212, (R)-6-cyclopropyl-1-(4-cyclopropylpiperazin-1-yl)-4-((1-(3-(difluoromethyl)-2-methylphenyl)ethyl)amino)pyrido[3,4-d]pyridazin-7(6H)-one]", "IC50": 11.9},
      {"smiles": "Cc1c([C@@H](C)Nc2nnc(N3CCC(F)(F)C3)c3cc(=O)n(C4CC4)cc23)cccc1C(F)(F)F", "note": "[Example 55, (R)-6-cyclopropyl-1-(3,3-difluoropyrrolidin-1-yl)-4-((1-(2-methyl-3-(trifluoromethyl)phenyl)ethyl)amino)pyr ido[3,4-d]pyridazin-7(6H)-one]", "IC50": 49.2},
      {"smiles": "Cc1c(C#N)cccc1[C@@H](C)Nc1nnc(N2CCN(C(C)C)CC2)c2cc(=O)n(C3CC3)cc12", "note": "[Example 215, (R)-3-(1-((6-cyclopropyl-1-(4-isopropylpiperazin-1-yl)-7-oxo-6,7-dihydropyrido[3,4-d]pyridazin-4-yl)amino)ethyl)-2-methylbenzonitrile]", "IC50": 8.6},
      {"smiles": "Cc1c(C#N)cccc1[C@@H](C)Nc1nnc(N2CCC2)c2cc(=O)n(C3(C)CC3)cc12", "note": "[Example 70, (R)-3-(1-((1-(azetidin-1-yl)-6-(1-methylcyclopropyl)-7-oxo-6,7-dihydropyrido[3,4-d]pyridazin-4-yl)amino)ethyl)-2-methylbenzonitrile]", "IC50": 6.7},
      {"smiles": "Cc1c(C#N)cccc1[C@@H](C)Nc1nnc(N2CCN(C)CC2)c2cc(=O)n(N3CC4CCCC4C3)cc12", "note": "(stereo partly drawn) [Example 150, 3-((1R)-1-((6-(hexahydrocyclopenta[c]pyrrol-2(1H)-yl)-1-(4-methylpiperazin-1-yl)-7-oxo-6,7-dihydropyrido[3,4-d]pyridazin-4-yl)amino)ethyl)-2-methylbenzonitrile]", "IC50": 5.5},
      {"smiles": "CCN(C)c1nnc(N[C@H](C)c2cccc(C(F)F)c2F)c2cn(C3(C)CC3)c(=O)cc12", "note": "[Example 122, (R)-4-((1-(3-(difluoromethyl)-2-fluorophenyl)ethyl)amino)-1-(ethyl(methyl)amino)-6-(1-methylcyclopropyl) pyrido[3,4-d]pyridazin-7(6H)-one]", "IC50": 10.6},
      {"smiles": "Cc1c(C#N)cccc1[C@@H](C)Nc1nnc(N2CC3CC3C2)c2cc(=O)n(C3(C)CC3)cc12", "note": "(stereo partly drawn) [Example 46, 3-((1R)-1-((1-(3-azabicyclo[3.1.0]hexan-3-yl)-6-(1-methylcyclopropyl)-7-oxo-6,7-dihydropyrido[3,4-d]pyridazin-4-yl)amino)ethyl)-2-methylbenzonitrile]", "IC50": 9.3},
      {"smiles": "Cc1c(C#N)cccc1[C@@H](C)Nc1nnc(N2CC(F)(F)C2)c2cc(=O)n(C3(C)CC3)cc12", "note": "[Example 48, (R)-3-(1-((1-(3,3-difluoroazetidin-1-yl)-6-(1-methylcyclopropyl)-7-oxo-6,7-dihydropyrido[3,4-d]pyridazin-4-yl)amino)ethyl)-2-methylbenzonitrile]", "IC50": 46.5},
      {"smiles": "Cc1c(C#N)cccc1[C@@H](C)Nc1nnc(N2CCCC2)c2cc(=O)n(C3(C)CC3)cc12", "note": "[Example 45, (R)-2-methyl-3-(1-((6-(1-methylcyclopropyl)-7-oxo-1-(pyrrolidin-1-yl)-6,7-dihydropyrido[3,4-d]pyridazin-4-yl)amino)ethyl)benz onitrile]", "IC50": 6.2},
      {"smiles": "C[C@@H](Nc1nnc(NC(C2CC2)C2CC2)c2cc(=O)n(C3(C)CC3)cc12)c1cccc(C(F)F)c1F", "note": "[Example 129, (R)-1-((dicyclopropylmethyl)amino)-4-((1-(3-(difluoromethyl)-2-fluorophenyl)ethyl)amino)-6-(1-methylcyclopropyl) pyrido[3,4-d]pyridazin-7(6H)-one]", "IC50": 6.1},
      {"smiles": "C[C@@H](Nc1nnc(N2CCN(C3CCCC3)CC2)c2cc(=O)n(C)cc12)c1cccc(C(F)F)c1F", "note": "[Example 146, (R)-1-(4-cyclopentylpiperazin-1-yl)-4-((1-(3-(difluoromethyl)-2-fluorophenyl)ethyl)amino)-6-methylpyrido[3,4-d]pyridazin-7(6H)-one]", "IC50": 12.5},
      {"smiles": "Cc1c(C#N)cccc1[C@@H](C)Nc1nnc(N2CCC(F)(F)CC2)c2cc(=O)n(C3(C)CC3)cc12", "note": "[Example 47, (R)-3-(1-((1-(4,4-difluoropiperidin-1-yl)-6-(1-methylcyclopropyl)-7-oxo-6,7-dihydropyrido[3,4-d]pyridazin-4-yl)amino)ethyl)-2-methylbenzonitrile]", "IC50": 66.2}
    ]}
  ]
}
